Assay results as given in the supplement of paper PMC10627819.

Key:
[1] = test system: B. subtilis 168; assay: Bliss interaction score (quartile over a dose matrix) (fitness difference); higher = more antagonism (negative = synergy)
How it was run: (§1)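 The Bliss score is observed minus expected fitness under the product model, reported as quartiles over technical, biological and donor/recipient replicates. Fitness is the OD595 at entry into stationary phase divided by the plate's robust no-drug mean and capped at 1. Single-drug fitness was inferred from combination data.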

[2] = test system: S. aureus DSM 20231; assay: as above
How it was run: as §1

[3] = test system: S. aureus Newman; assay: as above
How it was run: as §1

[4] = test system: S. pneumoniae D39V; assay: as above
How it was run: as §1

[5] = test system: B. subtilis 168; assay: fitness (endpoint OD595 vs no drug) (fraction); higher = more growth
How it was run: (§2)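 Plates with 384 wells were inoculated at OD595 0.01 using 30 µl of TSB, LB Lennox or CY, or 55 µl for S. pneumoniae. Incubation was at 37 °C, with OD595 measured every 30 min for 14 h. Fitness is the stationary-phase transition optical density over the robust mean of no-drug control wells, after first-reading background subtraction; it is capped at 1.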

[6] = test system: S. pneumoniae D39V; assay: as above
How it was run: as §2
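Wherever Bliss interaction score (quartile over a dose matrix) is given: first quartile when negative (synergy) and third quartile when positive (antagonism).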

COc1cccc2c1C(=O)c1c(O)c3c(c(O)c1C2=O)C[C@@](O)(C(=O)CO)C[C@@H]3O[C@H]1C[C@H](N)[C@H](O)[C@H](C)O1 [Doxorubicin] + C[C@H]1COc2c(N3CCN(C)CC3)c(F)cc3c(=O)c(C(=O)O)cn1c23 [Levofloxacin]
Conditions	Bliss interaction score
[1]	0.0423
[2]	0.0678
[3]	0.133
[4]	-0.0424

fitness, [5], one replicate
Conditions	first compound 0.625 µg/mL	first compound 1.25 µg/mL	first compound 2.5 µg/mL
partner 0.001 µg/mL	≥ 1	0.98	0.943
partner 0.0078 µg/mL	0.888	0.894	0.567

Conditions	fitness
[5], first compound 0.625 µg/mL, partner 0.002 µg/mL	0.93
[5], first compound 0.625 µg/mL, partner 0.0039 µg/mL	0.927
[5], first compound 0.625 µg/mL, partner 0.0312 µg/mL	0.0411
[5], first compound 0.625 µg/mL, partner 0.0625 µg/mL	0.0463
[5], first compound 0.625 µg/mL, partner 0.125 µg/mL	0.0495
[5], first compound 1.25 µg/mL, partner 0.002 µg/mL	0.901
[5], first compound 1.25 µg/mL, partner 0.0039 µg/mL	0.873
[5], first compound 1.25 µg/mL, partner 0.0312 µg/mL	0.0455
[5], first compound 1.25 µg/mL, partner 0.0625 µg/mL	0.0566
[5], first compound 1.25 µg/mL, partner 0.125 µg/mL	0.0562
[5], first compound 2.5 µg/mL, partner 0.002 µg/mL	0.791
[5], first compound 2.5 µg/mL, partner 0.0039 µg/mL	0.73
[5], first compound 2.5 µg/mL, partner 0.0312 µg/mL	0.031
[5], first compound 2.5 µg/mL, partner 0.0625 µg/mL	0.0389
[5], first compound 2.5 µg/mL, partner 0.125 µg/mL	0.0379
[6], first compound 0.25 µg/mL, partner 0.1725 µg/mL	0.853
[6], first compound 0.25 µg/mL, partner 0.2 µg/mL	0.904
[6], first compound 0.25 µg/mL, partner 0.345 µg/mL	0.776
[6], first compound 0.25 µg/mL, partner 0.4 µg/mL	0.834
[6], first compound 0.25 µg/mL, partner 0.69 µg/mL	0.509
[6], first compound 0.5 µg/mL, partner 0.1725 µg/mL	0.941
[6], first compound 0.5 µg/mL, partner 0.2 µg/mL	0.942
[6], first compound 0.5 µg/mL, partner 0.345 µg/mL	0.871
[6], first compound 0.5 µg/mL, partner 0.4 µg/mL	0.831
[6], first compound 0.5 µg/mL, partner 0.69 µg/mL	0.571
[6], first compound 1 µg/mL, partner 0.1725 µg/mL	0.875
[6], first compound 1 µg/mL, partner 0.2 µg/mL	0.854
[6], first compound 1 µg/mL, partner 0.345 µg/mL	0.798
[6], first compound 1 µg/mL, partner 0.4 µg/mL	0.736
[6], first compound 1 µg/mL, partner 0.69 µg/mL	0.548
[6], first compound 1 µg/mL, partner 0.8 µg/mL	0.342

C[C@H]1c2cccc(O)c2C(=O)C2=C(O)[C@]3(O)C(=O)C(C(N)=O)=C(O)[C@@H](N(C)C)[C@@H]3[C@@H](O)[C@@H]21 [Doxycycline] + CC1=C\[C@@H](O)CC(=O)Cc2nc(co2)C(=O)N2CCC=C2C(=O)O[C@H](C(C)C)[C@H](C)/C=C/C(=O)NC\C=C\1 [Virginiamycin M1]
Conditions	Bliss interaction score
[1]	0.0353
[2]	-0.151
[3]	-0.0791
[4]	0.0434

fitness
Conditions	first compound 0.0155 µg/mL	first compound 0.02 µg/mL	first compound 0.031 µg/mL	first compound 0.04 µg/mL	first compound 0.062 µg/mL	first compound 0.08 µg/mL
[5], partner 0.0625 µg/mL	–	0.898	–	0.805	–	0.572
[5], partner 0.125 µg/mL	–	0.899	–	0.726	–	0.458
[5], partner 0.25 µg/mL	–	0.936	–	0.806	–	0.491
[6], partner 0.5 µg/mL	0.968	–	0.902	–	0.813	–
[6], partner 1 µg/mL	0.998	–	0.847	–	0.831	–
[6], partner 2 µg/mL	0.904	–	0.794	–	0.758	–

[6], one replicate
Conditions	fitness
first compound 0.003875 µg/mL, partner 0.5 µg/mL	≥ 1
first compound 0.003875 µg/mL, partner 1 µg/mL	≥ 1
first compound 0.003875 µg/mL, partner 2 µg/mL	≥ 1
first compound 0.00775 µg/mL, partner 0.5 µg/mL	0.995
first compound 0.00775 µg/mL, partner 1 µg/mL	≥ 1
first compound 0.00775 µg/mL, partner 2 µg/mL	≥ 1
first compound 0.0155 µg/mL, partner 0.15 µg/mL	0.887
first compound 0.0155 µg/mL, partner 0.3 µg/mL	0.823
first compound 0.031 µg/mL, partner 0.15 µg/mL	0.878
first compound 0.031 µg/mL, partner 0.3 µg/mL	0.819
first compound 0.062 µg/mL, partner 0.15 µg/mL	0.793
first compound 0.062 µg/mL, partner 0.3 µg/mL	0.762

C[C@H]1c2cccc(O)c2C(=O)C2=C(O)[C@]3(O)C(=O)C(C(N)=O)=C(O)[C@@H](N(C)C)[C@@H]3[C@@H](O)[C@@H]21 [Doxycycline] + CC(=O)NC[C@H]1CN(c2ccc(N3CCOCC3)c(F)c2)C(=O)O1 [Linezolid]
Conditions	Bliss interaction score
[1]	-0.137
[2]	-0.0188
[3]	-0.0282
[4]	-0.197

fitness, one replicate
Conditions	first compound 0.003875 µg/mL	first compound 0.00775 µg/mL	first compound 0.02 µg/mL	first compound 0.031 µg/mL	first compound 0.04 µg/mL	first compound 0.062 µg/mL	first compound 0.08 µg/mL
[5], partner 0.0625 µg/mL	–	–	0.775	–	0.51	–	0.0619
[6], partner 0.2 µg/mL	0.796	0.774	–	0.668	–	0.465	–
[6], partner 0.4 µg/mL	0.7	0.65	–	0.4	–	0.241	–
[6], partner 0.8 µg/mL	0.353	0.37	–	0.24	–	0.116	–

Conditions	fitness
[5], first compound 0.02 µg/mL, partner 0.5 µg/mL	0.0524
[5], first compound 0.04 µg/mL, partner 0.5 µg/mL	0.0497
[5], first compound 0.08 µg/mL, partner 0.25 µg/mL	0.0313
[5], first compound 0.08 µg/mL, partner 0.5 µg/mL	0.0418
[6], first compound 0.0155 µg/mL, partner 0.105 µg/mL	0.702
[6], first compound 0.0155 µg/mL, partner 0.2 µg/mL	0.776
[6], first compound 0.0155 µg/mL, partner 0.21 µg/mL	0.595
[6], first compound 0.0155 µg/mL, partner 0.4 µg/mL	0.575
[6], first compound 0.0155 µg/mL, partner 0.42 µg/mL	0.406
[6], first compound 0.0155 µg/mL, partner 0.8 µg/mL	0.325
[6], first compound 0.031 µg/mL, partner 0.105 µg/mL	0.694
[6], first compound 0.031 µg/mL, partner 0.21 µg/mL	0.602
[6], first compound 0.031 µg/mL, partner 0.42 µg/mL	0.297
[6], first compound 0.062 µg/mL, partner 0.105 µg/mL	0.606
[6], first compound 0.062 µg/mL, partner 0.21 µg/mL	0.477
[6], first compound 0.062 µg/mL, partner 0.42 µg/mL	0.207

C[C@H]1c2cccc(O)c2C(=O)C2=C(O)[C@]3(O)C(=O)C(C(N)=O)=C(O)[C@@H](N(C)C)[C@@H]3[C@@H](O)[C@@H]21 [Doxycycline] + CC(C1CCC(C(O1)OC2C(CC(C(C2O)OC3C(C(C(CO3)(C)O)NC)O)N)N)N)NC [Gentamicin]
main component drawn
Conditions	Bliss interaction score
[1]	0.213
[2]	0.067
[3]	0.0873
[4]	-0.208

main component drawn
Conditions	fitness
[5], first compound 0.02 µg/mL, partner 0.0625 µg/mL	0.896
[5], first compound 0.04 µg/mL, partner 0.0625 µg/mL	0.747
[5], first compound 0.08 µg/mL, partner 0.25 µg/mL	0.0845
[6], first compound 0.0155 µg/mL, partner 2 µg/mL	0.885
[6], first compound 0.0155 µg/mL, partner 4 µg/mL	0.857
[6], first compound 0.0155 µg/mL, partner 8 µg/mL	0.824

fitness, [6], one replicate, main component drawn
Conditions	partner 2 µg/mL	partner 4 µg/mL	partner 8 µg/mL
first compound 0.003875 µg/mL	≥ 1	≥ 1	≥ 1
first compound 0.00775 µg/mL	≥ 1	0.995	0.967
